This test concerns the target T1, recombinant human SAE enzyme (Homo sapiens, UniProt Q9UBT2).
T1 sequence (Q9UBT2 1-640): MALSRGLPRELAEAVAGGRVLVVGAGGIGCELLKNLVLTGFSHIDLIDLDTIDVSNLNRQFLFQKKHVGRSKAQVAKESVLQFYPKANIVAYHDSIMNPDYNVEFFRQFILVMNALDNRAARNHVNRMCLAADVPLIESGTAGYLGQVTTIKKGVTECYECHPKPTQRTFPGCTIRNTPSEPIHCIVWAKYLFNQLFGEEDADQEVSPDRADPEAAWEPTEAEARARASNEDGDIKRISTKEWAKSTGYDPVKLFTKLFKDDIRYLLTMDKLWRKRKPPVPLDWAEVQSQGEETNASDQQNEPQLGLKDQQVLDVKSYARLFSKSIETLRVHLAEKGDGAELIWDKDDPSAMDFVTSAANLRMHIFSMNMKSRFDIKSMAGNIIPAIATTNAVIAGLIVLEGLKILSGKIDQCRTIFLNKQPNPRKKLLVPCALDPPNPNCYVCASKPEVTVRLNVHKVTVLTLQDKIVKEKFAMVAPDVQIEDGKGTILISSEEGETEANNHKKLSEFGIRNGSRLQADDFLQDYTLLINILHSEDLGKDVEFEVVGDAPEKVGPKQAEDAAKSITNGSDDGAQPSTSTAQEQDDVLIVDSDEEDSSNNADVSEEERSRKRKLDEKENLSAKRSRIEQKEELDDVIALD
T1 sequence (Q9UBE0 1-346 partner): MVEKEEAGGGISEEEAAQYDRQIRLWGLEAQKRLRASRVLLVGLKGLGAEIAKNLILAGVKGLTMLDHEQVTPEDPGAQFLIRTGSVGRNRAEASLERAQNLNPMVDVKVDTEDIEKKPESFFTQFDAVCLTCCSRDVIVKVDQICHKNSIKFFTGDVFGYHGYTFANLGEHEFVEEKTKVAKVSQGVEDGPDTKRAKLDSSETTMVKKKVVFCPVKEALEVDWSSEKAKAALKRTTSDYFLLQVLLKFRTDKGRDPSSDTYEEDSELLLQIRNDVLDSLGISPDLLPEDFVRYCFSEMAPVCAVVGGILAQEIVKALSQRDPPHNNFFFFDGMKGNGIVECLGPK
The test can be described thus: SAE HTRF Enzyme Assay. The note with it: for IC50: class symbols A-C; for inhibition at 0.111 µM: compound concentration 0.111 μM, read-out: Percent Inhibition. The format is biochemical. In a few lines:
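Recombinant human SAE (0.11 nM) transferred Sumo-Flag (0.125 μM) to Ubc9-GST (0.01 μM) with 0.5 μM ATP in HEPES pH 7.5, MgCl2, GSH, BSA; 105 min at 24° C. EDTA stop, Eu-cryptate anti-Flag and XL-APC anti-GST added, 2 h, then HTRF read. Values given as % inhibition at one concentration or IC50.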
On the technique in general: TR-FRET usually uses a lanthanide donor and a delayed reading to cut background.

Structures can show the parent of a compound that is named as a salt.

In patent US9695154B2, “Heteroaryl inhibitors of sumo activating enzyme” (MILLENNIUM PHARMACEUTICALS, INC., priority 2013, dated 2017) one finds IC50 and inhibition data, which are given here for five compounds.

By IC50 is commonly meant the point on the concentration scale where inhibition reaches its midpoint. As a reminder, the inhibition is the drop in the measured response relative to a control, in per cent. Take `NS(=O)(=O)OC[C@H]1C[C@@H](Nc2ncncc2C(=O)c2ccn(Cc3cccc(OC(F)(F)F)c3)n2)[C@H](O)[C@@H]1O` [Compound I-349, [(1R,2R,3S,4R)-2,3-dihydroxy-4-{[5-({1-[3-(trifluoromethoxy)benzyl]-1H-pyrazol-3-yl}carbonyl)pyrimidin-4-yl]amino}cyclopentyl]methyl sulfamate]: the IC50 was below 10 nM and the inhibition at 0.111 µM amounted to 100%.

Take `NS(=O)(=O)OC[C@H]1C[C@@H](Nc2ncncc2C(=O)c2ccn(Cc3cccc(Br)n3)n2)C[C@@H]1O` [Compound I-352, [(1R,2S,4R)-4-{[5-({1-[(6-bromopyridin-2-yl)methyl]-1H-pyrazol-3-yl}carbonyl)pyrimidin-4-yl]amino}-2-hydroxycyclopentyl]methyl sulfamate]: the IC50 was below 10 nM and the inhibition at 0.111 µM was determined as 99%.

Take `CC(C)(O)c1cc(C(=O)c2cncnc2N[C@@H]2C[C@H](COS(N)(=O)=O)[C@@H](O)C2)nn1Cc1cccc(Br)c1` [Compound I-367, {(1R,2S,4R)-4-[(5-{[1-(3-bromobenzyl)-5-(2-hydroxypropan-2-yl)-1H-pyrazol-3-yl]carbonyl}pyrimidin-4-yl)amino]-2-hydroxycyclopentyl}methyl sulfamate]: the half-inhibitory concentration (IC50) is below 10 nM and the inhibition at 0.111 µM was 99%.

As for `COCc1cc(C(=O)c2cncnc2N[C@@H]2C[C@H](COS(N)(=O)=O)[C@@H](O)C2)nn1Cc1cccc(Br)c1` [Compound I-368, {(1R,2S,4R)-4-[(5-{[1-(3-bromobenzyl)-5-(methoxymethyl)-1H-pyrazol-3-yl]carbonyl}pyrimidin-4-yl)amino]-2-hydroxycyclopentyl}methyl sulfamate], the IC50 was below 10 nM and the inhibition at 0.111 µM amounted to 98%.

`N[C@@H]1[C@H](O)[C@@H](COS(N)(=O)=O)C[C@H]1Nc1ncncc1C(=O)c1ccn(Cc2cccc(Br)c2)n1` [Compound I-370, {(1R,2R,3S,4R)-3-amino-4-[(5-{[1-(3-bromobenzyl)-1H-pyrazol-3-yl]carbonyl}pyrimidin-4-yl)amino]-2-hydroxycyclopentyl}methyl sulfamate.2[HCl]]: the half-inhibitory concentration (IC50) lay in the range of 10 to 100 nM and the inhibition at 0.111 µM stood at 78%.
